The source of these data is ChEMBL document CHEMBL3352002, “Discovery of diethyl 2,5-diaminothiophene-3,4-dicarboxylate derivatives as potent anticancer and antimicrobial agents and screening of anti-diabetic activity: synthesis and in vitro biological evaluation. Part 1” (Eur J Med Chem, 2014).

One assay has as its system Staphylococcus aureus. Briefly: Antimicrobial activity against Staphylococcus aureus ATCC 6538 assessed as inhibition zone after 24 hrs by agar well diffusion method. The assay is classed as functional. In general terms: In agar diffusion tests the substance spreads into inoculated agar from a disc or well.
The next assay deals with Candida albicans. Description: Antimicrobial activity against Candida albicans ATCC 10231 assessed as inhibition zone after 24 hrs by agar well diffusion method. The class given is functional.
The target of assay [1] is T1, Tyrosine-protein phosphatase non-receptor type 1 (Homo sapiens, UniProt P18031).
T1 sequence (P18031 whole entry): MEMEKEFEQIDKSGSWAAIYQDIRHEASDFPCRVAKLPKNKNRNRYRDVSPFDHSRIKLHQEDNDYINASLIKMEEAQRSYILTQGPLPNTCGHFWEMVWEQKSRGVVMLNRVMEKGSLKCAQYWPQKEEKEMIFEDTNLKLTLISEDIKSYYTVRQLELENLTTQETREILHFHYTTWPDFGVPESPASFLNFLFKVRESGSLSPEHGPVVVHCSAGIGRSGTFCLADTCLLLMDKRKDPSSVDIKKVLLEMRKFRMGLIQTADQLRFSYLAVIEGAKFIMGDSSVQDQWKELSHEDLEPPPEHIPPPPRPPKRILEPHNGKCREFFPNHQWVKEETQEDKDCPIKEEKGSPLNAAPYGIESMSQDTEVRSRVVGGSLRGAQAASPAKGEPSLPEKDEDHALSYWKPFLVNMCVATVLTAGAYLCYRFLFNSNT
Description: Inhibition of PTP-1B (unknown origin) using pNPP substrate measured after 30 mins.

A further assay has as its system Ishikawa. Description: Anticancer activity against human Ishikawa cells assessed as inhibition of tumor cell proliferation after 48 hrs by MTT assay. The assay is classed as functional, cell-based. A general note: Tetrazolium assays rely on reduction of a dye to a coloured formazan, in cell work by metabolically active cells.
A further assay concerns HeLa. Description: Anticancer activity against human HeLa cells assessed as inhibition of tumor cell proliferation after 48 hrs by MTT assay. The assay is classed as functional, cell-based.
The next assay relates to T47D. Description: Anticancer activity against human T47D cells assessed as inhibition of tumor cell proliferation after 48 hrs by MTT assay. The class given is functional, cell-based.
The subject of a further assay is Escherichia coli. Briefly: Antimicrobial activity against Escherichia coli ATCC 11229 assessed as inhibition zone after 24 hrs by agar well diffusion method. The assay is classed as functional.
The next assay relates to MCF7. Briefly: Anticancer activity against human MCF7 cells assessed as inhibition of tumor cell proliferation after 48 hrs by MTT assay. As to conditions: MCF7, 48 h; call rule not given here. The assay is classed as functional, cell-based.

Each structure is given as a SMILES string.

Usually IC50 stands for the midpoint of a concentration-inhibition curve. Regarding `CCOC(=O)c1c(N)sc(N)c1C(=O)OCC`, the entries for the “diameter of the inhibition zone (DIZ)” value in the assay with Staphylococcus aureus, in the assay on Candida albicans and with Escherichia coli were 10 mm, less than 5.5 mm and less than 5.5 mm, respectively. For the same molecule, the IC50 entry was “Not Active” in assay [1]; 46.9 µM with Ishikawa; 40.3 µM with HeLa; 11.6 µM in the assay with T47D; 18.6 µM in the assay with MCF7.

As for `CCOC(=O)c1c(N)sc(/N=C/c2ccccc2)c1C(=O)OCC`, the “diameter of the inhibition zone (DIZ)” value with Staphylococcus aureus is reported as 9 mm; with Candida albicans, 8 mm; in the assay on Escherichia coli, less than 5.5 mm. Also, the IC50 result was “Not Active” in assay [1]; 37.9 µM with Ishikawa; 31.2 µM in the assay with HeLa; 30.3 µM in the assay on T47D; 6.1 µM in the assay on MCF7.

As for `CCOC(=O)c1c(N)sc(/N=C/c2ccc([N+](=O)[O-])cc2)c1C(=O)OCC`, the “diameter of the inhibition zone (DIZ)” value is 8.5 mm with Staphylococcus aureus, less than 5.5 mm with Candida albicans and less than 5.5 mm with Escherichia coli. In addition, the IC50 in assay [1] (read-out: IC50) turned out to be 6.43 µM; in the assay with Ishikawa, 141 µM; in the assay with HeLa it was 14.1 µM; in the assay with T47D, 2.3 µM; in the assay with MCF7 it was 1.3 µM.

`CCOC(=O)c1c(N)sc(/N=C/c2ccc(Cl)cc2)c1C(=O)OCC`: the “diameter of the inhibition zone (DIZ)” value in the assay with Staphylococcus aureus, with Candida albicans and in the assay with Escherichia coli was less than 5.5 mm in each case. The IC50 result in assay [1] is “Not Active”; in the assay on Ishikawa, 27.1 µM; in the assay with HeLa, 25.2 µM; in the assay on T47D it was 12.1 µM; in the assay on MCF7, 6.8 µM.

Consider `CCOC(=O)c1c(N)sc(/N=C/c2ccc(F)cc2)c1C(=O)OCC`, for which the figures for the “diameter of the inhibition zone (DIZ)” value in the assay with Staphylococcus aureus, in the assay with Candida albicans and in the assay with Escherichia coli were 10 mm, 8 mm and less than 5.5 mm, respectively. Further, the IC50 entry in assay [1] was “Not Active”; in the assay on Ishikawa, 32.1 µM; in the assay on HeLa, 30.8 µM; in the assay on T47D, 22.5 µM; in the assay with MCF7, 22.5 µM.

With `CCOC(=O)c1c(N)sc(/N=C/c2ccc(Br)cc2)c1C(=O)OCC`, the “diameter of the inhibition zone (DIZ)” value with Staphylococcus aureus, in the assay with Candida albicans and with Escherichia coli was less than 5.5 mm in each case. Also, the IC50 is 6.54 µM in assay [1] (read-out: IC50); 46.1 µM in the assay on Ishikawa; 25.9 µM with HeLa; 13.2 µM with T47D; 12.5 µM in the assay with MCF7.

With `CCOC(=O)c1c(N)sc(/N=C/c2ccc(OC)cc2)c1C(=O)OCC`, the “diameter of the inhibition zone (DIZ)” value in the assay with Staphylococcus aureus is given as 9 mm; with Candida albicans, 9 mm; with Escherichia coli it was less than 5.5 mm. The IC50 entry in assay [1] was “Not Active”; in the assay with Ishikawa it was 108 µM; in the assay on HeLa, 189 µM; in the assay on T47D it was 31.9 µM; in the assay on MCF7 it was 16.2 µM.

Turning to `CCOC(=O)c1c(N)sc(/N=C/c2ccc(C)cc2)c1C(=O)OCC`, the “diameter of the inhibition zone (DIZ)” value in the assay on Staphylococcus aureus is 10 mm; in the assay with Candida albicans, 8 mm; in the assay on Escherichia coli, less than 5.5 mm. The IC50 result was “Not Active” in assay [1]; 52.5 µM with Ishikawa; 41.9 µM in the assay with HeLa; 37.2 µM with T47D; 8.9 µM in the assay on MCF7.

For `CCOC(=O)c1c(N)sc(/N=C/c2ccc(N(C)C)cc2)c1C(=O)OCC`, the results for the “diameter of the inhibition zone (DIZ)” value with Staphylococcus aureus, in the assay on Candida albicans and in the assay with Escherichia coli were 11.5 mm, 8 mm and less than 5.5 mm, respectively. Further, the half-inhibitory concentration (IC50) in assay [1] (read-out: IC50) was 7.32 µM; with Ishikawa, 73 µM; in the assay with HeLa, 131 µM; with T47D it was 16.7 µM; in the assay with MCF7, 5.7 µM.

For `CCOC(=O)c1c(N)sc(/N=C/c2ccco2)c1C(=O)OCC`, the “diameter of the inhibition zone (DIZ)” value is 10.5 mm in the assay on Staphylococcus aureus, less than 5.5 mm in the assay on Candida albicans and less than 5.5 mm in the assay on Escherichia coli. Also, the IC50 entry was “Not Active” in assay [1]; 69.3 µM in the assay on Ishikawa; 46.7 µM in the assay with HeLa; 14.9 µM with T47D; 62.2 µM in the assay on MCF7.

With `CCOC(=O)c1c(N)sc(/N=C/c2ccc([N+](=O)[O-])o2)c1C(=O)OCC`, the “diameter of the inhibition zone (DIZ)” value is 22 mm in the assay on Staphylococcus aureus, more than 22 mm in the assay on Candida albicans and 16 mm in the assay on Escherichia coli. For the same molecule, the IC50 stood at 7.12 µM in assay [1] (read-out: IC50); 7.6 µM in the assay on Ishikawa; 4.7 µM with HeLa; 16 µM with T47D; 2.4 µM in the assay with MCF7.

As to `CCOC(=O)c1c(N)sc(/N=C/c2cccs2)c1C(=O)OCC`, the “diameter of the inhibition zone (DIZ)” value with Staphylococcus aureus is recorded as 10 mm; in the assay on Candida albicans it was less than 5.5 mm; in the assay on Escherichia coli, less than 5.5 mm. Also, the IC50 in assay [1] (read-out: IC50) was 14.8 µM; in the assay with Ishikawa it was 39.8 µM; in the assay on HeLa, 21.3 µM; in the assay with T47D, 7.1 µM; in the assay with MCF7, 26.1 µM.

For the molecule `CCOC(=O)c1c(N)sc(/N=C/c2ccncc2)c1C(=O)OCC`, the “diameter of the inhibition zone (DIZ)” value was less than 5.5 mm in the assay with Staphylococcus aureus, 7 mm in the assay on Candida albicans and less than 5.5 mm in the assay on Escherichia coli. Besides, the IC50 result was “Not Active” in assay [1]; 119 µM in the assay on Ishikawa; 35.4 µM in the assay with HeLa; 8.6 µM with T47D; 92.2 µM in the assay with MCF7.

`C[C@@H]1[C@H](O)[C@@H](C)/C=C/C=C/C=C/C=C/C=C/C=C/C=C/[C@H](O[C@@H]2O[C@H](C)[C@@H](O)[C@H](N)[C@@H]2O)C[C@@H]2O[C@](O)(C[C@@H](O)C[C@@H](O)[C@H](O)CC[C@@H](O)C[C@@H](O)CC(=O)O[C@H]1C)C[C@H](O)[C@H]2C(=O)O` [AMPHOTERICIN B]: the “diameter of the inhibition zone (DIZ)” value with Staphylococcus aureus amounted to 15 mm.

Regarding `CC1(C)S[C@@H]2[C@H](NC(=O)[C@H](N)c3ccccc3)C(=O)N2[C@H]1C(=O)O` [AMPICILLIN], the “diameter of the inhibition zone (DIZ)” value is 14 mm in the assay with Candida albicans and 19 mm with Escherichia coli.

`COc1cccc2c1C(=O)c1c(O)c3c(c(O)c1C2=O)C[C@@](O)(C(=O)CO)C[C@@H]3O[C@H]1C[C@H](N)[C@H](O)[C@H](C)O1` [DOXORUBICIN]: the IC50 amounted to 9.02 µM in the assay with Ishikawa, 7.04 µM with HeLa, 15.5 µM in the assay with T47D and 6.75 µM in the assay on MCF7.
